Columns and labels:
[1] = molecular target: T1, ΔF508-CFTR (Homo sapiens, UniProt P13569, DEL508-508); assay: CFTR cell surface levels using HRP-tagged ΔF508-CFTR expressing CFBE cells, in the presence of a co-corrector; type: cell-based; details: HRP-tagged ΔF508-CFTR CFBE cells, in the presence of 3 μM co-corrector; for EC50: read-out: EC50
T1 construct: host or cells: CFBE41o-, doxycycline-inducible
Method in brief: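 Chemiluminescent read-out of surface HRP (15 min, dark) after PBS washes. Activity is normalized as 100×(sample−DMSO)/(3 μM co-corrector alone−DMSO).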

[2] = molecular target: T1, ΔF508-CFTR; assay: CFTR cell surface levels using HRP-tagged ΔF508-CFTR expressing CFBE cells, intrinsic corrector capacity; type: cell-based; parameters: % Activation: concentration or dose not given beside the values; details: HRP-tagged ΔF508-CFTR expressing CFBE41o- cells, compound alone (intrinsic corrector capacity), 20 hours at 33° C.; for EC50: read-out: EC50
Method in brief: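 Surface ΔF508-CFTR was measured as HRP chemiluminescence from an extracellular-loop-4 tag, expressed as percent activity between DMSO and a […] corrector control.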

T1 sequence (P13569 with tags, fused parts or gaps DEL508-508): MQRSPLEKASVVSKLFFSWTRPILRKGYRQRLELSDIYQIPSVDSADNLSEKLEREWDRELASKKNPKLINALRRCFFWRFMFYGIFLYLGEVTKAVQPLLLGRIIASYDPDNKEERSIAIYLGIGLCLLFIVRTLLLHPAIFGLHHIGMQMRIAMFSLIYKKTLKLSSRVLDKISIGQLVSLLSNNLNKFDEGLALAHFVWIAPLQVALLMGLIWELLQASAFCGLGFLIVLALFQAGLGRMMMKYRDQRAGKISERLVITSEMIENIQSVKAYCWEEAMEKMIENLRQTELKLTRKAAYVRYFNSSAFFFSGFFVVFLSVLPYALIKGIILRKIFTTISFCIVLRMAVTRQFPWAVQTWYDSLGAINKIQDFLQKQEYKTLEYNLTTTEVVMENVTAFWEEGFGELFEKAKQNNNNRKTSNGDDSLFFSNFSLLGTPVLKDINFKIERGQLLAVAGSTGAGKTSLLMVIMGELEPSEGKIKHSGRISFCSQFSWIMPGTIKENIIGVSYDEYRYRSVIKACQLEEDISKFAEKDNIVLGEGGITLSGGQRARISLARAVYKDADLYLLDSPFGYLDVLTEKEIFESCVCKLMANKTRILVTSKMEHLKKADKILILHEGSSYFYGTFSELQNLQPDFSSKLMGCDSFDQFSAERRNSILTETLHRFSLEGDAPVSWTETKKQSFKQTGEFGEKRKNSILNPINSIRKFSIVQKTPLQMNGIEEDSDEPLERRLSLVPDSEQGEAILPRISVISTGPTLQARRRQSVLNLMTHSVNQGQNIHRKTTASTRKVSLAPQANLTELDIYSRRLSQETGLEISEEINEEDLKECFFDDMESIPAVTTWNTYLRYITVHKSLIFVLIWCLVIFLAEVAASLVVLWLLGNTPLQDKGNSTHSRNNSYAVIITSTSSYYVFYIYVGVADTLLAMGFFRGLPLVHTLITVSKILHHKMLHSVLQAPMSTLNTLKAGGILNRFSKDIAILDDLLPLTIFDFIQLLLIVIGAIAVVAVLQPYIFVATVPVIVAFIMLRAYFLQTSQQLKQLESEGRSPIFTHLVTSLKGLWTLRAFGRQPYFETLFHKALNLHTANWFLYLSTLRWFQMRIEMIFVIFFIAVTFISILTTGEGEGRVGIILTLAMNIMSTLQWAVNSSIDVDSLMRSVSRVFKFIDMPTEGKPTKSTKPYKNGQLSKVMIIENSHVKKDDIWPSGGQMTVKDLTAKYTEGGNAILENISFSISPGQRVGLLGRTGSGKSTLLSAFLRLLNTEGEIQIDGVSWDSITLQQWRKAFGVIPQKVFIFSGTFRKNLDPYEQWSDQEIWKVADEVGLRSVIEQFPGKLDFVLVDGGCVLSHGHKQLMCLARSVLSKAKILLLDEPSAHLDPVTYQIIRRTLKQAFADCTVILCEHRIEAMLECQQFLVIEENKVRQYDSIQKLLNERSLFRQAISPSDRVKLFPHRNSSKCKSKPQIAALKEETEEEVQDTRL

| Structure (SMILES) | % Activation [1] | EC50 [1] | % Activation [2] | EC50 [2] |
| --- | --- | --- | --- | --- |
| O=C(NS(=O)(=O)C1CC1)c1cc(N2CCC(N3CCN(C4CC4)CC3)CC2)c2c(C3CCC3)nn(-c3ccccc3)c2n1 [Compound 550, 3-cyclobutyl-N-(cyclopropanesulfonyl)-4-[4-(4-cyclopropylpiperazin-1-yl)piperidin-1-yl]-1-phenyl-1H-pyrazolo[3,4-b]pyridine-6-carboxamide] | 605.45% | 173 nM | 347% | 361 nM |
| CC(C)N1CCN(C2CCN(c3cc(C(=O)NS(=O)(=O)N(C)C)nc4c3c(C3CCC3)nn4C3CCCCC3)CC2)CC1 [Compound 553, 3-cyclobutyl-1-cyclohexyl-N-(dimethylsulfamoyl)-4-{4-[4-(propan-2-yl)piperazin-1-yl]piperidin-1-yl}-1H-pyrazolo[3,4-b]pyridine-6-carboxamide] | 494.3% | 233 nM | 293% | 1730 nM |
| CCCN(C)S(=O)(=O)NC(=O)c1cc(N2CCC(N3CCN(C4CC4)CC3)CC2)c2c(C3CCC3)nn(-c3ccccc3)c2n1 [Compound 554, 3-cyclobutyl-4-[4-(4-cyclopropylpiperazin-1-yl)piperidin-1-yl]-N-[methyl(propyl)sulfamoyl]-1-phenyl-1H-pyrazolo[3,4-b]pyridine-6-carboxamide] | 481% | 56.9 nM | 269.45% | 108 nM |
| CS(=O)(=O)NC(=O)c1cc(N2CCC(N3CCN(C4CC4)CC3)CC2)c2c(C3CCC3)nn(-c3ccccc3)c2n1 [Compound 556, 3-cyclobutyl-4-[4-(4-cyclopropylpiperazin-1-yl)piperidin-1-yl]-N-(methanesulfonyl)-1-phenyl-1H-pyrazolo[3,4-b]pyridine-6-carboxamide] | 595.8% | 136 nM | 386% | 64.7 nM |
| CC1(S(=O)(=O)NC(=O)c2cc(N3CCC(N4CCN(C5CC5)CC4)CC3)c3c(C4CCC4)nn(-c4ccccc4)c3n2)CC1 [Compound 557, 3-cyclobutyl-4-[4-(4-cyclopropylpiperazin-1-yl)piperidin-1-yl]-N-(1-methylcyclopropane-1-sulfonyl)-1-phenyl-1H-pyrazolo[3,4-b]pyridine-6-carboxamide] | 474.4% | 116 nM | 248.5% | 252 nM |
| CN(C)S(=O)(=O)NC(=O)c1cc(N2CCC(N3CCC(C(F)(F)F)C3)CC2)c2c(C3CCC3)nn(-c3ccc(F)cc3)c2n1 (centres unmarked) [Compound 560, 3-cyclobutyl-N-(dimethylsulfamoyl)-1-(4-fluorophenyl)-4-{4-[3-(trifluoromethyl)pyrrolidin-1-yl]piperidin-1-yl}-1H-pyrazolo[3,4-b]pyridine-6-carboxamide] | 544.45% | 66.1 nM | 260.4% | 96.3 nM |
| CN(C)S(=O)(=O)NC(=O)c1cc(N2CCC(N3CCCC(F)C3)CC2)c2c(C3CCC3)nn(-c3ccc(F)cc3)c2n1 (centres unmarked) [Compound 563, 3-cyclobutyl-N-(dimethylsulfamoyl)-4-(3-fluoro[1,4'-bipiperidin]-1'-yl)-1-(4-fluorophenyl)-1H-pyrazolo[3,4-b]pyridine-6-carboxamide] | 542.9% | 111 nM | 298.9% | 198 nM |
| CS(=O)(=O)NC(=O)c1cc(N2CCC(N3CCC(C(F)(F)F)C3)CC2)c2c(C3CCC3)nn(-c3ccc(F)cc3)c2n1 (centres unmarked) [Compound 564, 3-cyclobutyl-1-(4-fluorophenyl)-N-(methanesulfonyl)-4-{4-[3-(trifluoromethyl)pyrrolidin-1-yl]piperidin-1-yl}-1H-pyrazolo[3,4-b]pyridine-6-carboxamide] | 587.4% | 40.8 nM | 361.35% | 118 nM |
| CS(=O)(=O)NC(=O)c1cc(N2CCC(N3CCC(C#N)C3)CC2)c2c(C3CCC3)nn(-c3ccc(F)cc3)c2n1 (centres unmarked) [Compound 565, 4-[4-(3-cyanopyrrolidin-1-yl)piperidin-1-yl]-3-cyclobutyl-1-(4-fluorophenyl)-N-(methanesulfonyl)-1H-pyrazolo[3,4-b]pyridine-6-carboxamide] | 637.53% | 69.9 nM | 373.15% | 182 nM |
| CS(=O)(=O)NC(=O)c1cc(N2CCC(N3CCCC(C#N)C3)CC2)c2c(C3CCC3)nn(-c3ccc(F)cc3)c2n1 (centres unmarked) [Compound 566, 4-(3-cyano[1,4'-bipiperidin]-1'-yl)-3-cyclobutyl-1-(4-fluorophenyl)-N-(methanesulfonyl)-1H-pyrazolo[3,4-b]pyridine-6-carboxamide] | 708.8% | 400 nM | 365.1% | 112 nM |
| CS(=O)(=O)NC(=O)c1cc(N2CCC(N3CCCC(F)C3)CC2)c2c(C3CCC3)nn(-c3ccc(F)cc3)c2n1 (centres unmarked) [Compound 567, 3-cyclobutyl-4-(3-fluoro[1,4'-bipiperidin]-1'-yl)-1-(4-fluorophenyl)-N-(methanesulfonyl)-1H-pyrazolo[3,4-b]pyridine-6-carboxamide] | 539.8% | 56.3 nM | 312.2% | 139 nM |
| O=C(NS(=O)(=O)N1CCCCC1)c1cc(N2CCC(N3CCOCC3)CC2)c2c(C3CCC3)nn(-c3ccc(F)cc3)c2n1 [Compound 568, 3-cyclobutyl-1-(4-fluorophenyl)-4-[4-(morpholin-4-yl)piperidin-1-yl]-N-(piperidine-1-sulfonyl)-1H-pyrazolo[3,4-b]pyridine-6-carboxamide] | 461% | 46.3 nM | 240.65% | 77.5 nM |
| O=C(NS(=O)(=O)N1CC(F)C1)c1cc(N2CCC(N3CCOCC3)CC2)c2c(C3CCC3)nn(-c3ccc(F)cc3)c2n1 [Compound 569, 3-cyclobutyl-N-(3-fluoroazetidine-1-sulfonyl)-1-(4-fluorophenyl)-4-[4-(morpholin-4-yl)piperidin-1-yl]-1H-pyrazolo[3,4-b]pyridine-6-carboxamide] | 436.13% | 88.9 nM | 220.77% | 112 nM |
| CN(C)S(=O)(=O)NC(=O)c1cc(N2CCC(N3CCCC(C(F)(F)F)C3)CC2)c2c(C3CCC3)nn(-c3ccc(F)cc3)c2n1 (centres unmarked) [Compound 571, 3-cyclobutyl-N-(dimethylsulfamoyl)-1-(4-fluorophenyl)-4-[3-(trifluoromethyl)[1,4'-bipiperidin]-1'-yl]-1H-pyrazolo[3,4-b]pyridine-6-carboxamide] | 487.9% | 77.8 nM | 268.15% | 129 nM |
| COC1CCCN(C2CCN(c3cc(C(=O)NS(=O)(=O)N(C)C)nc4c3c(C3CCC3)nn4-c3ccc(F)cc3)CC2)C1 (centres unmarked) [Compound 572, 3-cyclobutyl-N-(dimethylsulfamoyl)-1-(4-fluorophenyl)-4-(3-methoxy[1,4'-bipiperidin]-1'-yl)-1H-pyrazolo[3,4-b]pyridine-6-carboxamide] | 412.9% | 225 nM | 237.55% | 295 nM |
| CN(C)S(=O)(=O)NC(=O)c1cc(N2CCC(N3CCOC(C)(C)C3)CC2)c2c(C3CCC3)nn(-c3ccc(F)cc3)c2n1 [Compound 573, 3-cyclobutyl-4-[4-(2,2-dimethylmorpholin-4-yl)piperidin-1-yl]-N-(dimethylsulfamoyl)-1-(4-fluorophenyl)-1H-pyrazolo[3,4-b]pyridine-6-carboxamide] | 467.57% | 58.5 nM | 270.53% | 104 nM |
| CC(=O)NCCS(=O)(=O)NC(=O)c1cc(N2CCC(N3CCOCC3)CC2)c2c(C3CCC3)nn(-c3ccc(F)cc3)c2n1 [Compound 574, N-(2-acetamidoethanesulfonyl)-3-cyclobutyl-1-(4-fluorophenyl)-4-[4-(morpholin-4-yl)piperidin-1-yl]-1H-pyrazolo[3,4-b]pyridine-6-carboxamide] | 283.3% | 542 nM | 129.9% | 2760 nM |
| COC[C@H]1CCCN1S(=O)(=O)NC(=O)c1cc(N2CCC(N3CCOCC3)CC2)c2c(C3CCC3)nn(-c3ccc(F)cc3)c2n1 [Compound 577, 3-cyclobutyl-1-(4-fluorophenyl)-N-[(2R)-2-(methoxymethyl)pyrrolidine-1-sulfonyl]-4-[4-(morpholin-4-yl)piperidin-1-yl]-1H-pyrazolo[3,4-b]pyridine-6-carboxamide] | 379.3% | 105 nM | 187.15% | 257 nM |
| CN(C1CCOCC1)S(=O)(=O)NC(=O)c1cc(N2CCC(N3CCOCC3)CC2)c2c(C3CCC3)nn(-c3ccc(F)cc3)c2n1 [Compound 579, 3-cyclobutyl-1-(4-fluorophenyl)-N-[methyl(oxan-4-yl)sulfamoyl]-4-[4-(morpholin-4-yl)piperidin-1-yl]-1H-pyrazolo[3,4-b]pyridine-6-carboxamide] | 420.5% | 319 nM | 205% | 376 nM |
| O=C(NS(=O)(=O)N1CC(F)(F)C1)c1cc(N2CCC(N3CCOCC3)CC2)c2c(C3CCC3)nn(-c3ccc(F)cc3)c2n1 [Compound 580, 3-cyclobutyl-N-(3,3-difluoroazetidine-1-sulfonyl)-1-(4-fluorophenyl)-4-[4-(morpholin-4-yl)piperidin-1-yl]-1H-pyrazolo[3,4-b]pyridine-6-carboxamide] | 387.45% | 52.4 nM | 201.52% | 131 nM |
